From patent publication US5602171A, “Methods of inhibiting phosphatase activity and treatment of disorders associated therewith using naphthopyrones and derivatives thereof” (Sugen Inc., priority 1995, dated 1997)

Tested on: 3T3-L1 cells
Experiment: Glucose transport assay
Assay type: cell-based
Details: differentiated 3T3-L1 preadipocyte cell line, in the absence of insulin; 0.1 μM to 500 μM, 1-4 hours
From the text: This assay was used to assess the ability of the compounds of the invention to inhibit phosphatase activity that is involved in the signaling pathway that regulates the insulin-induced facilitated transport of glucose into adipocytes. […] Any compounds of the invention may be tested in this assay.
The cell line used for the glucose transport assay was 3T3-L1, a preadipocyte cell line (American Type Culture Collection CCL92.1) which overexpress the insulin receptor. The 3T3-L1 cells were first differentiated by treating cells under confluent growth in DMEM containing 10% fetal bovine serum (FBS) with 0.5 mM 3-isobutyl-1-methyl-xanthine, 5 μg/ml porcine insulin, […] dexamethasone for 2 days. The cells were then grown in DMEM containing 10% FBS and 5 μg/ml porcine insulin for two days, after which the cells were cultured in DMEM containing only 10% FBS.
Cells for use in the assay were first grown overnight in DMEM media and 1% FBS at 37° C. at 5% CO2. Two hours before use, the overnight media was replaced with serum free DMEM containing 5 mM glucose. […] The wells were washed each with 200 μl PBS which was transferred to the corresponding scintillation vial. ^3 H radioactivity was counted with a Beckman counter.

## CC1CC(=O)c2c(cc3c(-c4c(O)cc(O)c5c(O)c6c(cc45)OC(C)CC6=O)c(O)cc(O)c3c2O)O1 (stereo not shown) [Compound 1]
  uptake of 2-deoxy-3H-glucose: Dose response effect
